Test results as given in patent EP0429987B1, “5,11-Dihydro-6H-dipyrido[3,2-b:2',3'-e] [1,4]diazepines and their use in the prevention or treatment of HIV infection” (priority 1989, dated 1991).

Key:
[1] = system: HTLV-IIIB strain of HIV-1; experiment: Human T-Cell Culture Assay: inhibition of syncytia formation in c8166 cells; format: cell-based; settings: Human immunodeficiency virus 1, IIIB, 96 h, four days after virus challenge
Procedure: In order to confirm that compounds which are active in the RT Assay also have the ability to inhibit HIV replication in a living system, compounds according to the invention were also tested in the human T-Cell Culture Assay described below.
Assay Theory: Formation of syncytia is a feature of in vitro cultures of CD4+ T-cells infected with HIV-1. In this assay, T-cells are treated with a putative replication inhibiting compound and then infected with HIV-1. After incubation, the culture is checked for the formation of syncytia. The absence or reduction in the number of syncytia is used as a measure of the test compound's ability to inhibit HIV replication.
Assay Method: The target cells, designated c8166, are a sub-clone of human lymphoma cells of T-cell origin and are established at an initial density of 5x10^4 per 100 ul in RPMI 1640 (+ 10% fetal bovine serum) culture medium in 96 well flat bottom plates. A selected amount of test compound, dissolved in DMSO, is included. After 24 hours, 50-100 TCID50's (the dose that results in induced effect in 50% of test cultures) of the HTLV-IIIB strain of HIV-1 (2) are inoculated into each culture. Control cultures receive compound or virus only. Four days after virus challenge, cultures are visually examined for the frequency and distribution of virus-induced giant cell syncytia. The percent inhibition by the test compound is determined by comparison with control values. Confirmation of the presence or absence of virus replication is accomplished by harvesting the cell free culture fluids from all experimental groups to determine the presence or absence of infectious progeny through the induction of syncytia formation in secondary human T-cell cultures after 3 days.

[2] = MTT Assay for Cellular Cytotoxicity; settings: human, h9 cells
Procedure: In order to roughly assess the cytotoxicity of the compounds provided by the invention, several such compounds were tested in the MTT Cellular Cytotoxicity Assay described below.
The MTT [3-(4,5-dimethylthiazol-2-yl)-2,5 diphenyl tetrazolium bromide) assay is based on cleavage of tetrazolium bromide by metabolically active cells, resulting in a highly quantitative blue color. This assay has been previously described (1) but has been optimized for the purposes of the testing reported herein.
The H9 cell line (2), an established human lymphoma suspension cell line grown in RPMI 1640 supplemented with 10% fetal bovine serum, is used as the target cell line in the assay. Cells (100 µl) are plated in microtest plate wells at a concentration of 10^5 cells per ml in the presence of varying concentrations of inhibitor. The cells are incubated at 37°C in a humidified CO2 incubator. Five days later, 20µl of MTT (5mg/ml in RPMI 1640, sonicated, 0.2 micron filtered, and stored at 4°C) is added to each well. After 4 hours additional incubation at 37°C, 60µl of Triton-X is added to each well and thoroughly mixed to aid the solubilization of the crystals. Absolute ethanol (5µl) is added to each well and the resulting mixture is incubated for 30 minutes at 60°C and immediately read on a plate reader (Dynatech) at a wavelength of 570nm.
Data from this assay are used to generate a nonlinear regression analysis which yields an EC50.

[3] = molecular target: T1, HIV-1 RT (Human immunodeficiency virus type 1 group M subtype B, UniProt P03367); experiment: Reverse Transcriptase (RT) Assay: inhibition of RNA-dependent DNA polymerase activity; format: biochemical; settings: for inhibition at 1.25 µM: @ 1.25µM (footnote +); for inhibition at 10 µg/mL: read-out: RT Assay % inhibition @ 10 µg/ml
T1 construct: Reverse transcriptase enzyme from the LAV strain of Human Immunodeficiency Virus (HIV-1) (1) was isolated; made in house; host or cells: E. coli JM109, clone pBRTprtl+ in vector pIBI21 (lac promoter, IPTG induction)
From the text: Utilizing the Reverse Transcriptase (RT) Assay described below, compounds can be tested for their ability to inhibit the RNA-dependent DNA polymerase activity of HIV-1 RT.
Among the enzymes for which Human Immunodeficiency Virus (HIV-1) encodes is a reverse transcriptase (1), so-named because it transcribes a DNA copy from an RNA template. This activity can be quantitatively measured in a cell-free enzyme assay, which has been previously described (2), and is based upon the observation that reverse transcriptase is able to use a synthetic template [poly r(C) primed with oligo d(G)] to transcribe a radio-labelled, acid-precipitable DNA strand utilizing ^3H-dGTP as a substrate.
Reverse transcriptase enzyme from the LAV strain of Human Immunodeficiency Virus (HIV-1) (1) was isolated from the bacterial strain JM109 (3) expressing the DNA clone pBRTprtl+ (2) which is under the control of the lac promotor in the expression vector pIBI21 (4). An overnight culture grown in 2XYT medium (37°C, 225 rpm) (5) supplemented with 100 µg/ml ampicillin for positive selection is inoculated at a 1:40 dilution into M9 medium supplemented with 10µg/ml thiamine, 0.5% casamino acids, and 50 µg/ml ampicillin (5). The culture is incubated (37°C, 225 rpm) until it reaches an OD540 of 0.3-0.4. At that time the repressor inhibitor IPTG (isopropyl β-D-thiogalactopyranoside) is added to 0.5mM, and the mixture is incubated for 2 additional hours. Bacteria are pelleted, resuspended in a 50mM Tris, 0.6mM EDTA, 0.375M NaCl buffer and digested by the addition of lysozyme (1mg/ml) for 30 minutes on ice. The cells are lysed by the addition of 0.2% NP-40 and brought to 1M NaCl.
After removal of the insoluble debris by centrifugation, the protein is precipitated by the addition of 3 volumes of saturated aqueous ammonium sulfate. The enzyme is pelleted, resuspended in RT buffer (50mM Tris pH 7.5, 1mM EDTA, 5mM DTT, 0.1% NP-40, 0.1M NaCl, and 50% glycerol), and stored at -70°C for further use.
The 2X concentrated stock reaction mixture is aliquoted and stored at -20°C. […] This enzyme assay has been adapted to a 96 well microtiter plate system, and has been previously described (6). Tris buffer (50 mM, pH 7.4), vehicle (solvent diluted to match the compound dilution), or compounds in vehicle are dispensed into 96-well microtiter plates (10µl/well; 3 wells/ compound). The HIV-1 RT enzyme is thawed, diluted in 50mM Tris pH 7.4 so that fifteen µl of diluted enzyme contain 0.001 Unit (one unit is that amount of enzyme to transform 1 micromole of substrate per minute at 25°C), and fifteen µl are dispensed per well. Twenty µl of 0.12-0.5M EDTA are added to the first three wells of the microtiter plate. EDTA chelates the Mg^++ present and prevents reverse transcription. This group serves as background polymerization which is subtracted from all other groups. Twenty-five µl of the 2X reaction mixture are added to all wells and the assay is allowed to incubate at room temperature for 60 minutes. The assay is terminated by precipitating the DNA in each well with 50µl of 10% trichloracetic acid (TCA) (10% w/v) in sodium pyrophosphate (1% w/v). The microtiter plate is incubated for 15 minutes at 4°C and the precipitate is fixed onto #30 glass fiber paper (Schleicher & Schuell) using a Skatron semi-automatic harvester. The filters are then washed with additional TCA (5%) containing sodium pyrophosphate (1%), rinsed with aqueous ethanol (70%), dried, and transferred to scintillation vials (6). Each vial receives 2 mls of scintillation cocktail and is counted in a Beckman beta counter.
The calculation for percent inhibition is as follows: %inhibition =(CPM Mean Test Value - CPM Mean Control Value X100)/(CPM Mean Control Value) [formula]

| Structure (SMILES) | inhibition at 3 µg/mL [1] | CC50 at 120 h [2] | inhibition at 1.25 µM [3] | inhibition at 10 µg/mL [3] | RT Assay % inhibition @ 10 µg/ml ([3]; @ 10 µg/ml) |
| --- | --- | --- | --- | --- | --- |
| CCN1c2ncccc2C(=O)Nc2c(C)cc(OC)nc21 [Example 7, 5,11-Dihydro-11-ethyl-2-methoxy-4-methyl-6H-dipyrido[3,2-b:2',3'-e][1,4]diazepin-6-one] | 100% | 350 µM | 96% | – | – |
| CCN1c2ncccc2C(=O)Nc2c(C)ccnc21 [Example 2, 5,11-Dihydro-11-ethyl-4-methyl-6H-dipyrido-[3,2-b:2',3'-e][1,4]diazepin-6-one] | 100% | 200 µM | – | 100% | – |
| CN1C(=O)c2cccnc2N(C2CC2)c2ncccc21 [Example 47] | 100% | – | – | 100% | – |
| CCN1c2ncccc2NC(=O)c2cccnc21 [Example 14] | 100% | – | – | 99% | – |
| Cc1ccnc2c1NC(=O)c1cccnc1N2C1CC1 [Example 3, 11-Cyclopropyl-5,11-dihydro-4-methyl-6H-dipyrido[3,2-b:2',3'-e][1,4]diazepin-6-one] | 100% | 250 µM | – | – | 100% |
| CCN1c2ncccc2C(=O)N(C)c2ccc(N3CCCC3)nc21 [Example 6, 5,11-Dihydro-11-ethyl-5-methyl-2-(N-pyrrolidino)-6H-dipyrido[3,2-b:2',3'-e][1,4]diazepin-6-one] | 100% | 45 µM | 91% | – | – |
